Measurements: the CheMixHub viscosity set
Where “and” joins values, the source holds several entries; their conditions need not be identical. Identical values can stand only once.

Test: xn = mol fraction of the nth substance listed

CC(=O)[O-].CCn1cc[n+](CC)c1 + O
viscosity [mPa·s], 100 kPa
Conditions	x2 = 0.09432	x2 = 0.2079	x2 = 0.3498	x2 = 0.453	x2 = 0.5329
298.15 K	129.4	120.3	79.4	62.7	50.4
323.15 K	38.2	36.6	26.3	21.5	17.9

CCCCN + O
viscosity
Conditions	298.15 K	303.15 K	308.15 K	313.15 K	318.15 K	323.15 K
100 kPa, x1 = 0.1	–	1.869 mPa·s	–	1.43 mPa·s	–	1.133 mPa·s
100 kPa, x1 = 0.2	–	2.115 mPa·s	–	1.604 mPa·s	–	1.25 mPa·s
100 kPa, x1 = 0.3	–	1.933 mPa·s	–	1.462 mPa·s	–	1.143 mPa·s
100 kPa, x1 = 0.4	–	1.597 mPa·s	–	1.234 mPa·s	–	0.979 mPa·s
100 kPa, x1 = 0.5	–	1.273 mPa·s	–	0.996 mPa·s	–	0.808 mPa·s
100 kPa, x1 = 0.6	–	0.993 mPa·s	–	0.796 mPa·s	–	0.654 mPa·s
100 kPa, x1 = 0.7	–	0.786 mPa·s	–	0.649 mPa·s	–	0.547 mPa·s
100 kPa, x1 = 0.8	–	0.626 mPa·s	–	0.533 mPa·s	–	0.453 mPa·s
100 kPa, x1 = 0.9	–	0.541 mPa·s	–	0.454 mPa·s	–	0.393 mPa·s
101.33 kPa, x1 = 0.0001	–	0.8019 mPa·s	0.7212 mPa·s	0.6564 mPa·s	0.6007 mPa·s	0.5542 mPa·s
101.33 kPa, x1 = 0.1	2.372 mPa·s	1.885 mPa·s	1.642 mPa·s	1.574 mPa·s and 1.441 mPa·s	1.278 mPa·s	1.142 mPa·s
101.33 kPa, x1 = 0.1998	–	2.149 mPa·s	1.861 mPa·s	1.625 mPa·s	1.433 mPa·s	1.271 mPa·s
101.33 kPa, x1 = 0.2	2.685 mPa·s	–	–	1.742 mPa·s	–	–
101.33 kPa, x1 = 0.2999	–	1.964 mPa·s	1.707 mPa·s	1.494 mPa·s	1.318 mPa·s	1.172 mPa·s
101.33 kPa, x1 = 0.3999	–	1.601 mPa·s	1.405 mPa·s	1.242 mPa·s	1.111 mPa·s	0.9871 mPa·s
101.33 kPa, x1 = 0.4	2.006 mPa·s	–	–	1.353 mPa·s	–	–
101.33 kPa, x1 = 0.5	–	1.259 mPa·s	1.118 mPa·s	0.9974 mPa·s	0.8979 mPa·s	0.8131 mPa·s
101.33 kPa, x1 = 0.5997	–	0.9797 mPa·s	0.8813 mPa·s	0.7976 mPa·s	0.726 mPa·s	0.6647 mPa·s
101.33 kPa, x1 = 0.6	1.153 mPa·s	–	–	0.842 mPa·s	–	–
101.33 kPa, x1 = 0.7	–	0.7677 mPa·s	0.701 mPa·s	0.6419 mPa·s	0.5911 mPa·s	0.5472 mPa·s
101.33 kPa, x1 = 0.7999	–	0.6277 mPa·s	0.5795 mPa·s	0.5366 mPa·s	0.4994 mPa·s	0.4656 mPa·s
101.33 kPa, x1 = 0.8	0.686 mPa·s	–	–	0.54 mPa·s	–	–
101.33 kPa, x1 = 0.9001	–	0.5178 mPa·s	0.4829 mPa·s	0.4518 mPa·s	0.4243 mPa·s	0.399 mPa·s

CC[N+](CC)(CC)Cc1ccccc1.[Cl-] + O
viscosity [mPa·s], 100 kPa
Conditions	298.15 K	303.15 K	308.15 K	313.15 K	318.15 K
x1 = 8e-05	0.8929	0.7989	0.7209	0.6322	0.5462
x1 = 0.0002	0.8948	0.8015	0.7259	0.6354	0.5509
x1 = 0.0004	0.8991	0.8041	0.7284	0.6358	0.552

CCn1ccnc1 + O
viscosity [mPa·s], 100 kPa
Conditions	298.15 K	308.15 K	318.15 K
x1 = 0.05	1.48	1.16	0.94
x1 = 0.1007	2.04	1.56	1.23
x1 = 0.1995	2.99	2.21	1.7
x1 = 0.2988	3.68	2.67	2.03
x1 = 0.3937	4.05	2.92	2.19
x1 = 0.4933	4.05	2.93	2.21
x1 = 0.6011	3.84	2.81	2.14
x1 = 0.695	3.18	2.41	1.89
x1 = 0.7956	2.65	2.07	1.67
x1 = 0.89	2.27	1.82	1.5
x1 = 0.9542	2.05	1.67	1.39

Cc1ccncc1 + O
Conditions	viscosity [mPa·s]
318.15 K, 101 kPa, x1 = 0.4	1.365

O=C(O)[C@H](O)[C@@H](O)C(=O)O + O
298.2 K, 101.33 kPa
Conditions	viscosity [mPa·s]
x1 = 0.00125	0.9157
x1 = 0.002751	0.942
x1 = 0.00453	0.9725
x1 = 0.00652	0.9964
x1 = 0.008655	1.043
x1 = 0.01037	1.046
x1 = 0.01172	1.088

O=C([O-])CC(=O)[O-].[Na+].[Na+] + O
viscosity, 101 kPa
Conditions	x1 = 9e-05	x1 = 0.00018	x1 = 0.00027	x1 = 0.00036
298.15 K	0.8932 mPa·s and 0.8932 mPa·s	0.8959 mPa·s and 0.8959 mPa·s	0.8987 mPa·s and 0.8987 mPa·s	0.9014 mPa·s and 0.9014 mPa·s
308.15 K	0.7222 mPa·s and 0.7222 mPa·s	0.7237 mPa·s and 0.7237 mPa·s	0.7253 mPa·s and 0.7253 mPa·s	0.7279 mPa·s and 0.7279 mPa·s
318.15 K	0.598 mPa·s and 0.598 mPa·s	0.6007 mPa·s and 0.6007 mPa·s	0.6021 mPa·s and 0.6021 mPa·s	0.6048 mPa·s and 0.6048 mPa·s

O=S(=O)([O-])[O-].[K+].[K+] + O
Conditions	viscosity
293.65 K, 100 kPa, x1 = 0.008033	1.089 mPa·s
294.15 K, 100 kPa, x1 = 0.005375	1.042 mPa·s
294.15 K, 100 kPa, x1 = 0.01069	1.109 mPa·s and 1.108 mPa·s
298.15 K, 100 kPa, x1 = 5e-05	0.8905 mPa·s
298.15 K, 100 kPa, x1 = 0.0001	0.891 mPa·s
298.15 K, 100 kPa, x1 = 0.00021	0.892 mPa·s
298.15 K, 100 kPa, x1 = 0.00031	0.893 mPa·s
298.15 K, 100 kPa, x1 = 0.00104	0.9247 mPa·s
298.15 K, 101 kPa, x1 = 0.00655	0.966 mPa·s
298.15 K, 101 kPa, x1 = 0.01242	1.039 mPa·s
303.15 K, 101 kPa, x1 = 0.01242	0.9548 mPa·s
308.15 K, 100 kPa, x1 = 5e-05	0.7195 mPa·s
308.15 K, 100 kPa, x1 = 0.0001	0.72 mPa·s
308.15 K, 100 kPa, x1 = 0.00021	0.721 mPa·s
308.15 K, 100 kPa, x1 = 0.00031	0.722 mPa·s
308.15 K, 100 kPa, x1 = 0.00104	0.7509 mPa·s
308.15 K, 101 kPa, x1 = 0.01242	0.8705 mPa·s
313.15 K, 101 kPa, x1 = 0.01242	0.7905 mPa·s
318.15 K, 101 kPa, x1 = 0.01242	0.7249 mPa·s
323.15 K, 101 kPa, x1 = 0.00318	0.576 mPa·s
323.15 K, 101 kPa, x1 = 0.00655	0.603 mPa·s
323.15 K, 101 kPa, x1 = 0.0113	0.645 mPa·s

O=[N+]([O-])[O-].[Ag+] + O
298.15 K, 101 kPa
Conditions	viscosity [mPa·s]
x1 = 0.02589	0.99
x1 = 0.05251	1.134
x1 = 0.09523	1.451
x1 = 0.1797	2.439

O=c1[nH]cc(F)c(=O)[nH]1 + O
298.15 K, 101.3 kPa
Conditions	viscosity [mPa·s]
x1 = 3.46e-05	0.8891
x1 = 9.06e-05	0.8892
x1 = 0.000191	0.8901
x1 = 0.000303	0.8905
x1 = 0.000519	0.8917
x1 = 0.000754	0.8926
x1 = 0.000864	0.8933
x1 = 0.00108	0.8946

[I-].[K+] + O
310.15 K, 101 kPa
Conditions	viscosity [mPa·s]
x1 = 0.000916	0.6942
x1 = 0.001822	0.6976
x1 = 0.001827	0.7047
x1 = 0.002695	0.7079
x1 = 0.003679	0.7155
x1 = 0.005197	0.7273
x1 = 0.005988	0.7335

CCCCN + O=C1CCCCC1
Conditions	viscosity [mPa·s]
298.15 K, 101 kPa, x2 = 0.0765	0.623
298.15 K, 101 kPa, x2 = 0.157	0.754
298.15 K, 101 kPa, x2 = 0.2421	0.903
298.15 K, 101 kPa, x2 = 0.3319	1.06
298.15 K, 101 kPa, x2 = 0.427	1.223
298.15 K, 101 kPa, x2 = 0.5278	1.392
298.15 K, 101 kPa, x2 = 0.6349	1.563
298.15 K, 101 kPa, x2 = 0.7488	1.725
298.15 K, 101 kPa, x2 = 0.8702	1.88
303.15 K, 101.33 kPa, x1 = 0.1251	2.752
303.15 K, 101.33 kPa, x1 = 0.2012	2.984
303.15 K, 101.33 kPa, x1 = 0.2448	3.075
303.15 K, 101.33 kPa, x1 = 0.3617	3.092
303.15 K, 101.33 kPa, x1 = 0.5296	2.811
303.15 K, 101.33 kPa, x1 = 0.6105	2.592
303.15 K, 101.33 kPa, x1 = 0.7626	1.94
303.15 K, 101.33 kPa, x1 = 0.887	1.202

OC1CCCCCC1 + OCCO
viscosity [mPa·s], 100 kPa
Conditions	293.15 K	298.15 K	303.15 K	308.15 K	313.15 K	318.15 K
x1 = 0.0095	20.34	16.92	13.81	11.37	9.587	7.9
x1 = 0.0395	20.45	16.98	13.85	11.42	9.625	7.92
x1 = 0.0578	20.52	17.02	13.9	11.44	9.638	7.931
x1 = 0.0878	20.65	17.12	13.95	11.49	9.678	7.957
x1 = 0.1	20.71	17.16	13.98	11.51	9.694	7.972
x1 = 0.1961	21.18	17.53	14.22	11.7	9.819	8.064
x1 = 0.305	21.95	18.16	14.85	12.27	10.25	8.379
x1 = 0.3969	22.89	19.04	15.54	12.83	10.68	8.723
x1 = 0.4993	24.41	20.37	16.58	13.61	11.32	9.271
x1 = 0.5877	26.32	21.93	17.76	14.49	12.06	9.883
x1 = 0.6993	29.93	24.59	19.71	15.94	13.24	10.77
x1 = 0.7996	34.97	28.03	22.14	17.65	14.57	11.68
x1 = 0.8977	45.8	36.3	28.9	22.7	19	15.7

O=C(O)C(Cl)(Cl)Cl + Oc1ccccc1
323.15 K, 101 kPa
Conditions	viscosity [mPa·s]
x2 = 0.1005	5.083
x2 = 0.1834	5.115
x2 = 0.245	5.126
x2 = 0.3305	5.085
x2 = 0.4032	5.012
x2 = 0.5025	4.779
x2 = 0.5925	4.683
x2 = 0.6928	4.342
x2 = 0.76	4.127
x2 = 0.8544	3.811
x2 = 0.9117	3.569
